Patent US12226412B2, “Heteroaryl-ketone fused azadecalin glucocorticoid receptor modulators” (Corcept Therapeutics, Inc., priority 2012, dated 2025)
Read-outs that look alike come from different tables or passages of the source.

Experiments:
[1] = system: induction of TAT by dexamethasone in HepG2 cells; assay: HepG2 tyrosine aminotransferase (TAT) assay; format: cell-based, human
human recombinant GR = target: T1, human recombinant GR (Homo sapiens, UniProt P04150); assay: Human glucocorticoid receptor (GR) fluorescence polarisation (FP) binding assay
T1 construct: purchased PanVera P2812
T1 sequence (P04150 1-777): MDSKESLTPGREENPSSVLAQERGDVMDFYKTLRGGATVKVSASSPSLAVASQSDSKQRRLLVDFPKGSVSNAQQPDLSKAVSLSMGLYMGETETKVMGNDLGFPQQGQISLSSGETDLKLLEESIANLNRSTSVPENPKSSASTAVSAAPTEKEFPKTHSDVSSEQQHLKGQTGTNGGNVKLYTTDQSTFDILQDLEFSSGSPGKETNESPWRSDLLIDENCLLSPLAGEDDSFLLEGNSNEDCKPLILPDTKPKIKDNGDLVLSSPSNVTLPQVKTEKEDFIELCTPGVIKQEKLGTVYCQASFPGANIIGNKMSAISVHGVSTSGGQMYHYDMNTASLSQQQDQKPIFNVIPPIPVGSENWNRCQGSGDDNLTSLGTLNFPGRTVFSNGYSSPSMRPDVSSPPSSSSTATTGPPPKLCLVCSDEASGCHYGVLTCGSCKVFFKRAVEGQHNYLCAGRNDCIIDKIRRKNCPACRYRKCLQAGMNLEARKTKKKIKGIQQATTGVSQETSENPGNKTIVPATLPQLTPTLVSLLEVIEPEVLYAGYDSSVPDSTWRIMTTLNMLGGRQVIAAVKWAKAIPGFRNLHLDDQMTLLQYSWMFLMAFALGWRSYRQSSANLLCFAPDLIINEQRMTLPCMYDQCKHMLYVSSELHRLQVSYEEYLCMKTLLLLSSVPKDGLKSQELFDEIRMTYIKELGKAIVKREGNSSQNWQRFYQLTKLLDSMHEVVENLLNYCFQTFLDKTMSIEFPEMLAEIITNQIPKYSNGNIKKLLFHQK
Outline: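 Competition fluorescence polarisation: 0.5 nM GS Red labelled glucocorticoid and 1 nM recombinant human GR with 8-point half-log compound series, 1% DMSO, 4 h room temperature, potassium phosphate pH 7.4 buffer with molybdate, EDTA, DTT. Affinity derived from the drop in polarisation, normalised to blank wells.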

[2] = HepG2 cells, challenge of 100 nM dexamethasone, Ki from IC50 by Cheng and Prusoff equation
[3] = human recombinant GR, fluorescence polarisation binding assay, read-out: GR binding

Structure (SMILES)	Ki [1, 2] [nM]	Ki (human recombinant GR; [3]) [nM]	Ki [1] [nM]	Ki (human recombinant GR) [nM]
O=C(c1nccs1)[C@]12Cc3cnn(-c4ccc(F)cc4)c3C=C1CCN(S(=O)(=O)c1cccc(F)c1)C2 [Example 5A, (R)-(1-(4-fluorophenyl)-6-((3-fluorophenyl)sulfonyl)-4,4a,5,6,7,8-hexahydro-1H-pyrazolo[3,4-g]isoquinolin-4a-yl)(thiazol-2-yl)methanone]	< 20	< 0.5		
Cc1cnc(C(=O)[C@]23Cc4cnn(-c5ccc(F)cc5)c4C=C2CCN(S(=O)(=O)c2ccn(C)n2)C3)s1 [Example 12S, (R)-(1-(4-fluorophenyl)-6-((1-methyl-1H-pyrazol-3-yl)sulfonyl)-4,4a,5,6,7,8-hexahydro-1H-pyrazolo[3,4-g]isoquinolin-4a-yl)(5-methylthiazol-2-yl)methanone]	< 20	< 0.5		
COc1ccc(S(=O)(=O)N2CCC3=Cc4c(cnn4-c4ccc(F)cc4)C[C@]3(C(=O)c3ccccn3)C2)cn1 [Example 2R, (R)-(1-(4-fluorophenyl)-6-((6-methoxypyridin-3-yl)sulfonyl)-4,4a,5,6,7,8-hexahydro-1H-pyrazolo[3,4-g]isoquinolin-4a-yl)(pyridin-2-yl)methanone]	< 20	< 0.5		
O=C(c1nccs1)[C@]12Cc3cnn(-c4ccc(F)cc4)c3C=C1CCN(S(=O)(=O)Cc1cccc(F)c1)C2 [Example 2A, (R)-(6-((3-fluorobenzyl)sulfonyl)-1-(4-fluorophenyl)-4,4a,5,6,7,8-hexahydro-1H-pyrazolo[3,4-g]isoquinolin-4a-yl)(thiazol-2-yl) methanone]	≥ 100	< 0.5		
CCCn1cc(S(=O)(=O)N2CCC3=Cc4c(cnn4-c4ccc(F)cc4)C[C@]3(C(=O)c3ccccn3)C2)nn1 [Example 11CP, (R)-(1-(4-fluorophenyl)-6-((1-propyl-1H-1,2,3-triazol-4-yl)sulfonyl)-4,4a,5,6,7,8-hexahydro-1H-pyrazolo[3,4-g]isoquinolin-4a-yl)(pyridin-2-yl)methanone]	< 20	< 0.5		
N#Cc1cccc(S(=O)(=O)N2CCC3=Cc4c(cnn4-c4ccc(F)cc4)C[C@]3(C(=O)c3ccccn3)C2)c1 [Example 11G, (R)-3-((1-(4-fluorophenyl)-4a-picolinoyl-4a,5,7,8-tetrahydro-1H-pyrazolo[3,4-g]isoquinolin-6 (4H)-yl)sulfonyl)benzonitrile]			< 20	< 0.5
Cn1cc(S(=O)(=O)N2CCC3=Cc4c(cnn4-c4ccc(F)cc4)C[C@]3(C(=O)c3cscn3)C2)cn1 [Example 11CY, (R)-(1-(4-fluorophenyl)-6-((1-methyl-1H-pyrazol-4-yl)sulfonyl)-4,4a,5,6,7,8-hexahydro-1H-pyrazolo[3,4-g]isoquinolin-4a-yl)(thiazol-4-yl)methanone]	20 to 100	0.5 to 1		
CCCn1cc(S(=O)(=O)N2CCC3=Cc4c(cnn4-c4ccc(F)cc4)C[C@]3(C(=O)c3nccs3)C2)cn1 [Example 12Y, (R)-(1-(4-fluorophenyl)-6-((1-propyl-1H-pyrazol-4-yl)sulfonyl)-4,4a,5,6,7,8-hexahydro-1H-pyrazolo[3,4-g]isoquinolin-4a-yl)(thiazol-2-yl)methanone]	< 20	< 0.5		
N#Cc1cccc(S(=O)(=O)N2CCC3=Cc4c(cnn4-c4ccc(F)cc4)C[C@]3(C(=O)c3cc(C(F)(F)F)ccn3)C2)c1 [Example 11BL, (R)-3-((1-(4-fluorophenyl)-4a-(4-(trifluoromethyl)picolinoyl)-4a,5,7,8-tetrahydro-1H-pyrazolo[3,4-g]isoquinolin-6 (4H)-yl)sulfonyl)benzonitrile]	< 20	< 0.5		
Cc1ccnc(C(=O)[C@]23Cc4cnn(-c5ccc(F)cc5)c4C=C2CCN(S(=O)(=O)c2cn(C)cn2)C3)c1 [Example 11V, (R)-(1-(4-fluorophenyl)-6-((1-methyl-1H-imidazol-4-yl)sulfonyl)-4,4a,5,6,7,8-hexahydro-1H-pyrazolo[3,4-g]isoquinolin-4a-yl)(4-methylpyridin-2-yl)methanone]	20 to 100	< 0.5		
CCCn1ncc(S(=O)(=O)N2CCC3=Cc4c(cnn4-c4ccc(F)cc4)C[C@]3(C(=O)c3ccccn3)C2)n1 [Example 11CN, (R)-(1-(4-fluorophenyl)-6-((2-propyl-2H-1,2,3-triazol-4-yl)sulfonyl)-4,4a,5,6,7,8-hexahydro-1H-pyrazolo[3,4-g]isoquinolin-4a-yl)(pyridin-2-yl)methanone]	< 20	< 0.5		
Cc1cccc(S(=O)(=O)N2CCC3=Cc4c(cnn4-c4ccc(F)cc4)C[C@]3(C(=O)c3ncco3)C2)c1 [Example 1I, (R)-(1-(4-fluorophenyl)-6-(m-tolylsulfonyl)-4,4a,5,6,7,8-hexahydro-1H-pyrazolo[3,4-g]isoquinolin-4a-yl)(oxazol-2-yl)methanone]	20 to 100	< 0.5		
O=C(c1ccccn1)[C@]12Cc3cnn(-c4ccc(F)cc4)c3C=C1CCN(S(=O)(=O)c1ccccc1)C2 [Example 2K, (R)-(1-(4-fluorophenyl)-6-(phenylsulfonyl)-4,4a,5,6,7,8-hexahydro-1H-pyrazolo [3,4-g]isoquinolin-4a-yl)(pyridin-2-yl)methanone]	< 20	< 0.5		
O=C(c1cc(C(F)(F)F)ccn1)[C@]12Cc3cnn(-c4ccc(F)cc4)c3C=C1CCN(S(=O)(=O)c1c[nH]cn1)C2 [Example 2W, (R)-(6-((1H-imidazol-4-yl)sulfonyl)-1-(4-fluorophenyl)-4,4a,5,6,7,8-hexahydro-1H-pyrazolo[3,4-g]isoquinolin-4a-yl)(4-(trifluoromethyl)pyridin-2-yl)methanone]	20 to 100	> 1		
O=C(c1ccccn1)[C@]12Cc3cnn(-c4ccc(F)cc4)c3C=C1CCN(S(=O)(=O)c1ccc(OC(F)F)cc1)C2 [Example 11H, (R)-(6-((4-(difluoromethoxy)phenyl)sulfonyl)-1-(4-fluorophenyl)-4,4a,5,6,7,8-hexahydro-1H-pyrazolo[3,4-g]isoquinolin-4a-yl)(pyridin-2-yl)methanone]	< 20	< 0.5		
Cc1ccc(S(=O)(=O)N2CCC3=Cc4c(cnn4-c4ccc(F)cc4)C[C@]3(C(=O)c3ccccn3)C2)cc1C [Example 11M, (R)-(6-((3,4-dimethylphenyl)sulfonyl)-1-(4-fluorophenyl)-4,4a,5,6,7,8-hexahydro-1H-pyrazolo[3,4-g]isoquinolin-4a-yl)(pyridin-2-yl)methanone]	< 20	< 0.5		
CC(C)n1ncc(S(=O)(=O)N2CCC3=Cc4c(cnn4-c4ccc(F)cc4)C[C@]3(C(=O)c3ccccn3)C2)n1 [Example 11CT, (R)-(1-(4-fluorophenyl)-6-((2-isopropyl-2H-1,2,3-triazol-4-yl)sulfonyl)-4,4a,5,6,7,8-hexahydro-1H-pyrazolo[3,4-g]isoquinolin-4a-yl)(pyridin-2-yl)methanone]	< 20	< 0.5		
O=C(c1ccccn1)[C@]12Cc3cnn(-c4ccc(F)cc4)c3C=C1CCN(S(=O)(=O)c1cccc(Cl)c1)C2 [Example 2F, (R)-(6-((3-chlorophenyl)sulfonyl)-1-(4-fluorophenyl)-4,4a,5,6,7,8-hexahydro-1H-pyrazolo[3,4-g]isoquinolin-4a-yl)(pyridin-2-yl)methanone]			< 20	< 0.5
CN1CCOc2cc(S(=O)(=O)N3CCC4=Cc5c(cnn5-c5ccc(F)cc5)C[C@]4(C(=O)c4ccccn4)C3)cnc21 [Example 11AB, (R)-(1-(4-fluorophenyl)-6-((4-methyl-3,4-dihydro-2H-pyrido [3,2-b][1,4]oxazin-7-yl)sulfonyl)-4,4a,5,6,7,8-hexahydro-1H-pyrazolo[3,4-g]isoquinolin-4a-yl)(pyridin-2-yl)methanone]	20 to 100	< 0.5		
Cc1cccc(S(=O)(=O)N2CCC3=Cc4c(cnn4-c4ccc(F)cc4)C[C@]3(C(=O)c3nccs3)C2)c1 [Example 12A, (R)-(1-(4-fluorophenyl)-6-(m-tolylsulfonyl)-4,4a,5,6,7,8-hexahydro-1H-pyrazolo[3,4-g]isoquinolin-4a-yl)(thiazol-2-yl)methanone]	< 20	< 0.5		
CCn1nccc1S(=O)(=O)N1CCC2=Cc3c(cnn3-c3ccc(F)cc3)C[C@]2(C(=O)c2cscn2)C1 [Example 11CW, (R)-(6-((1-ethyl-1H-pyrazol-5-yl)sulfonyl)-1-(4-fluorophenyl)-4,4a,5,6,7,8-hexahydro-1H-pyrazolo[3,4-g]isoquinolin-4a-yl)(thiazol-4-yl)methanone]	20 to 100	< 0.5		
Cc1ccc(C(=O)[C@]23Cc4cnn(-c5ccc(F)cc5)c4C=C2CCN(S(=O)(=O)c2cccc(C)c2)C3)nc1 [Example 12F, (R)-(1-(4-fluorophenyl)-6-(m-tolylsulfonyl)-4,4a,5,6,7,8-hexahydro-1H-pyrazolo [3,4-g]isoquinolin-4a-yl)(5-methylpyridin-2-yl)methanone]	< 20	< 0.5		
